The nature of series [1]: Single oral dose of 14C-labeled 4-aminopyridine (1 mg/kg) in rats. To be noted: for tissue-to-blood ratio: oral dose; for AUC / Cmax / Tmax / half-life: rat, plasma, po, 1 mg/kg. The method, then: (§1) Studies were performed in rats and dogs using “C-labeled 4-aminopyridine (1 mg/kg) given as a single oral gavage dose in solution.
In a single-dose study, rats were administered “C-labeled 4-aminopyridine (1 mg/kg) p.o. Three animals per time point were sacrificed 1, 3, 8, and 24 hours post-dose. Blood was collected and tissues were excised for determination of radioactivity.

The nature of series [2]: Single oral dose of 14C-labeled 4-aminopyridine (1 mg/kg) in dogs. In kind it is in vivo. To be noted: dog, plasma, 1 mg/kg oral. On the procedure: as §1

For the molecule `Nc1ccncc1` [^14C-4-Aminopyridine], the “radioactivity in tissue, percentage of the dose” value is 0.7% in series [1] (blood, one hour post-dose); 15.4% in series [1] (carcass, 3 hours post-dose); 51% in series [1] (carcass, one hour post-dose); 1.6% in series [1] (kidney, one hour post-dose); 2.6% in series [1] (liver, one hour post-dose). Moreover, the tissue-to-blood ratio in series [1] (cerebellum) came to 1.48; in series [1] (cerebrum), 3.07. The AUC in series [1] (female) was 506 ± 63.3 ng·h/mL; in series [1] (male), 498 ± 17.6 ng·h/mL; in series [2] (female, females), 1920 ± 150 ng·h/mL; in series [2] (male, males) it was 2030 ± 406 ng·h/mL. Moreover, the Cmax in series [1] (female) was found to be 168 ± 15.7 ng/g; in series [1] (male), 189 ± 20.2 ng/g; in series [2] (female, females), 635 ± 103 ng/g; in series [2] (male, males), 574 ± 123 ng/g. Also, the Tmax turned out to be 0.5 h in series [1] (female); 1 h in series [1] (male); 0.8 ± 0.3 h in series [2] (female, females); 1 h in series [2] (male, males). Besides, the half-life in series [1] (female) was 1.4 ± 0.17 h; in series [1] (male) it was 1.1 ± 0.04 h; in series [2] (female, females) it was 1.8 ± 0.04 h; in series [2] (male, males) it was 2.1 ± 0.14 h. Besides, the “dose accounted for in total” value in series [1] (one hour post-dose) is reported as 58.3%.

Usually AUC stands for concentration integrated over time. Usually Cmax stands for the maximum level reached in the sampled fluid or tissue. A word on the Tmax: it is the time from dosing to the highest level. Broadly, the half-life is the time needed for the level to fall by half in the phase considered. Lower therefore signals rapid decline.

The values are drawn from US20170319562A1, “Compositions and Methods for Extended Therapy with Aminopyridines” (Acorda Therapeutics, Inc., priority 2009, published 2017).
